From ChEMBL document CHEMBL1201862, “PubChem BioAssay data set” (2004)
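Exposure lasted 48 hours, with cells grown in 96-well plates and compounds tested at five concentrations. Abbreviation: GI50, concentration required for 50% inhibition of growth.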 The source made the active and inactive calls. Cut-off read from the data, not from the text of the source: active = GI50 up to about 1.1 µM and inactive = higher.

Tests used:
Assay in all cases: NCI tumour cell line growth inhibition, 48 h
786-0 = test system: 786-0
A498 = test system: A498
A549 = test system: A549
ACHN = test system: ACHN
BT-549 = test system: BT-549
CAKI-1 = test system: CAKI-1
CCRF-CEM = test system: CCRF-CEM
COLO 205 = test system: COLO 205
DLD-1 = test system: DLD-1
DMS-114 = test system: DMS-114
DMS-273 = test system: DMS-273
DU-145 = test system: DU-145
EKVX = test system: EKVX
HCC 2998 = test system: HCC 2998
HCT-116 = test system: HCT-116
HCT-15 = test system: HCT-15
HL-60 = test system: HL-60
HOP-18 = test system: HOP-18
HOP-62 = test system: HOP-62
HOP-92 = test system: HOP-92
HT-29 = test system: HT-29
IGROV-1 = test system: IGROV-1
K562 = test system: K562
KM-20L2 = test system: KM-20L2
KM12 = test system: KM12
LOX IMVI = test system: LOX IMVI
LXFL 529 = test system: LXFL 529
M14 = test system: M14
M19-MEL = test system: M19-MEL
MCF7 = test system: MCF7
MDA-MB-231 = test system: MDA-MB-231
MOLT-4 = test system: MOLT-4
Malme-3M = test system: Malme-3M
NCI-H226 = test system: NCI-H226
NCI-H23 = test system: NCI-H23
NCI-H460 = test system: NCI-H460
NCI-H522 = test system: NCI-H522
NCI/ADR-RES = test system: NCI/ADR-RES
OVCAR-3 = test system: OVCAR-3
OVCAR-4 = test system: OVCAR-4
OVCAR-5 = test system: OVCAR-5
OVCAR-8 = test system: OVCAR-8
PC-3 = test system: PC-3
RPMI-8226 = test system: RPMI-8226
RXF 393 = test system: RXF 393
RXF 631 = test system: RXF 631
SF-268 = test system: SF-268
SF-295 = test system: SF-295
SF-539 = test system: SF-539
SK-MEL-28 = test system: SK-MEL-28
SK-MEL-2 = test system: SK-MEL-2
SK-MEL-5 = test system: SK-MEL-5
SK-OV-3 = test system: SK-OV-3
SN12C = test system: SN12C
SNB-19 = test system: SNB-19
SNB-75 = test system: SNB-75
SNB-78 = test system: SNB-78
SR = test system: SR
SW-620 = test system: SW-620
TK-10 = test system: TK-10
U-251 = test system: U-251
UACC-257 = test system: UACC-257
UACC-62 = test system: UACC-62
UO-31 = test system: UO-31
XF498 = test system: XF498
Hs-578T = test system: Hs-578T
MDA-N = test system: MDA-N
T47D = test system: T47D

## COc1cc(C2c3cc4c(cc3[C@@H](Nc3ccc5c(c3)OCCO5)C3COC(=O)[C@H]23)OCO4)cc(OC)c1O (stereo not given in full)
786-0
  GI50: 199 nM (active)
A498
  GI50: 190 nM (active)
A549
  GI50: 104 nM (active)
ACHN
  GI50: 585 nM (active)
BT-549
  GI50: 3900 nM (inactive)
CAKI-1
  GI50: 113 nM (active)
CCRF-CEM
  GI50: 138 nM (active)
COLO 205
  GI50: 918 nM (active)
DLD-1
  GI50: 692 nM (active)
DMS-114
  GI50: 303 nM (active)
DMS-273
  GI50: 109 nM (active)
DU-145
  GI50: 743 nM (active)
EKVX
  GI50: 2870 nM (inactive)
HCC 2998
  GI50: 1100 nM (active)
HCT-116
  GI50: 194 nM (active)
HCT-15
  GI50: 1250 nM
HL-60
  GI50: 105 nM (active)
HOP-18
  GI50: 3980 nM (inactive)
HOP-62
  GI50: 220 nM (active)
HOP-92
  GI50: 478 nM (active)
HT-29
  GI50: 555 nM (active)
IGROV-1
  GI50: 906 nM (active)
K562
  GI50: 413 nM (active)
KM-20L2
  GI50: 745 nM (active)
KM12
  GI50: 1850 nM (inactive)
LOX IMVI
  GI50: 587 nM (active)
LXFL 529
  GI50: 3440 nM (inactive)
M14
  GI50: 327 nM (active)
M19-MEL
  GI50: 622 nM (active)
MCF7
  GI50: 802 nM (active)
MDA-MB-231
  GI50: 16400 nM (inactive)
MOLT-4
  GI50: 35 nM (active)
Malme-3M
  GI50: 1600 nM (inactive)
NCI-H226
  GI50: 295 nM (active)
NCI-H23
  GI50: 207 nM (active)
NCI-H460
  GI50: 15.6 nM (active)
NCI-H522
  GI50: 301 nM (active)
NCI/ADR-RES
  GI50: 1070 nM (active)
OVCAR-3
  GI50: 959 nM (active)
OVCAR-4
  GI50: 5970 nM (inactive)
OVCAR-5
  GI50: 2220 nM (inactive)
OVCAR-8
  GI50: 693 nM (active)
PC-3
  GI50: 918 nM (active)
RPMI-8226
  GI50: 532 nM (active)
RXF 393
  GI50: 453 nM (active)
RXF 631
  GI50: 273 nM (active)
SF-268
  GI50: 771 nM (active)
SF-295
  GI50: 301 nM (active)
SF-539
  GI50: 435 nM (active)
SK-MEL-28
  GI50: 2050 nM (inactive)
SK-MEL-2
  GI50: 2190 nM (inactive)
SK-MEL-5
  GI50: 448 nM (active)
SK-OV-3
  GI50: 1580 nM (inactive)
SN12C
  GI50: 627 nM (active)
SNB-19
  GI50: 1040 nM (active)
SNB-75
  GI50: 581 nM (active)
SNB-78
  GI50: 1840 nM (inactive)
SR
  GI50: < 36.4 nM (active)
SW-620
  GI50: 586 nM (active)
TK-10
  GI50: 1520 nM (inactive)
U-251
  GI50: 516 nM (active)
UACC-257
  GI50: 2570 nM (inactive)
UACC-62
  GI50: 257 nM (active)
UO-31
  GI50: 499 nM (active)
XF498
  GI50: 525 nM (active)

## COc1ccc2nc(-c3ccc(O)cc3)cc(O)c2c1
786-0
  GI50: 2090 nM (inactive)
A498
  GI50: 269 nM (active)
A549
  GI50: 3700 nM (inactive)
ACHN
  GI50: 3820 nM (inactive)
BT-549
  GI50: 25900 nM (inactive)
CCRF-CEM
  GI50: 1090 nM (active)
COLO 205
  GI50: 1280 nM (inactive)
DLD-1
  GI50: 1350 nM (inactive)
DMS-114
  GI50: 474 nM (active)
DMS-273
  GI50: 206 nM (active)
DU-145
  GI50: 15700 nM (inactive)
EKVX
  GI50: 7060 nM (inactive)
HCC 2998
  GI50: 900 nM (active)
HCT-116
  GI50: 977 nM (active)
HCT-15
  GI50: 1360 nM
HL-60
  GI50: 649 nM (active)
HOP-18
  GI50: 4780 nM (inactive)
HOP-62
  GI50: 1420 nM (inactive)
HOP-92
  GI50: 631 nM (active)
HT-29
  GI50: 2260 nM (inactive)
Hs-578T
  GI50: 4300 nM (inactive)
IGROV-1
  GI50: 3870 nM (inactive)
K562
  GI50: 598 nM (active)
KM-20L2
  GI50: 1700 nM (inactive)
KM12
  GI50: 1030 nM (active)
LOX IMVI
  GI50: 1580 nM (inactive)
LXFL 529
  GI50: 1100 nM (active)
M14
  GI50: 857 nM (active)
M19-MEL
  GI50: 465 nM (active)
MCF7
  GI50: 3520 nM (inactive)
MDA-MB-231
  GI50: 22600 nM (inactive)
MDA-N
  GI50: 2760 nM (inactive)
MOLT-4
  GI50: 1410 nM (inactive)
Malme-3M
  GI50: 459 nM (active)
NCI-H226
  GI50: 959 nM (active)
NCI-H23
  GI50: 1160 nM (inactive)
NCI-H460
  GI50: 1950 nM (inactive)
NCI-H522
  GI50: 579 nM (active)
OVCAR-3
  GI50: 887 nM (active)
OVCAR-4
  GI50: 5120 nM (inactive)
OVCAR-5
  GI50: > 25900 nM (inactive)
OVCAR-8
  GI50: 2280 nM (inactive)
PC-3
  GI50: 4780 nM (inactive)
RPMI-8226
  GI50: 1650 nM (inactive)
RXF 393
  GI50: 137 nM (active)
RXF 631
  GI50: 3630 nM (inactive)
SF-268
  GI50: 764 nM (active)
SF-295
  GI50: 2100 nM (inactive)
SF-539
  GI50: 826 nM (active)
SK-MEL-28
  GI50: 1150 nM (inactive)
SK-MEL-2
  GI50: 679 nM (active)
SK-MEL-5
  GI50: 714 nM (active)
SK-OV-3
  GI50: 1060 nM (active)
SN12C
  GI50: 2780 nM (inactive)
SNB-19
  GI50: 3750 nM (inactive)
SNB-75
  GI50: 434 nM (active)
SNB-78
  GI50: 841 nM (active)
SW-620
  GI50: 1070 nM (active)
T47D
  GI50: 4730 nM (inactive)
TK-10
  GI50: 8970 nM (inactive)
U-251
  GI50: 718 nM (active)
UACC-257
  GI50: 1870 nM (inactive)
UACC-62
  GI50: 697 nM (active)
UO-31
  GI50: 3140 nM (inactive)
XF498
  GI50: 556 nM (active)
